According to patent publication US4994258A, “Gamma emitting, CCK-A antagonists for pancreatic imaging” (Merck & Co., Inc., priority 1990, dated 1991):

Assays:
[1] = test system: CCK-A receptors; details: mice, ^3 H and ^11 C labeled, high specific activity, 4 hours post intravenous injection; cited from earlier work
[2] = In vivo distribution of tritiated radioligand in pancreas; details: in vivo, iv
Description: (§1) Animals were euthanized at various times (15 min to 2 hr), and organs of interest removed for assay. Biopsy samples were counted in an autogamma counter (50% counting efficiency) for ^123 I labeled radioligand. For the tritiated radioligand, in rats and rabbits, 10 to 50 mg samples of pancreas and, in rats, several regions of CNS (cortex, interpeduncular nucleus, and substantial nigra) were solubilized in protosol® (New England Nuclear). Liquid scintillation cocktail was added and the samples were dark adapted for 16 hours, then counted in a liquid scintillation counter with automatic quench correction. Results were the average of at least five animals and were expressed as % dose/g (wet weight).

[3] = test system: CCK-A receptors; test: as above; details: pancreas, tritiated radioligand
Description: as §1

[4] = test system: CCK-A receptors; test: In vivo distribution after coinjection of unlabeled carboxamide (receptor-mediated binding); parameters: species or system rats
Description: (§2) Animals were euthanized at various times (15 min to 2 hr), and organs of interest removed for assay. […] […] Liquid scintillation cocktail was added and the samples were dark adapted for 16 hours, then counted in a liquid scintillation counter with automatic quench correction. Results were the average of at least five animals and were expressed as % dose/g (wet weight).

[5] = cited from earlier work
[6] = target: T1, CCK-A receptor from rat pancreas (Rattus norvegicus, UniProt P30551); test: In vitro binding assay, saturation studies with radioligand, rat pancreas
T1 construct: Pancreatae were removed from either rats or rabbits immediately after euthanasia; from tissue; host or cells: rat pancreas homogenate
T1 sequence (P30551 1-444): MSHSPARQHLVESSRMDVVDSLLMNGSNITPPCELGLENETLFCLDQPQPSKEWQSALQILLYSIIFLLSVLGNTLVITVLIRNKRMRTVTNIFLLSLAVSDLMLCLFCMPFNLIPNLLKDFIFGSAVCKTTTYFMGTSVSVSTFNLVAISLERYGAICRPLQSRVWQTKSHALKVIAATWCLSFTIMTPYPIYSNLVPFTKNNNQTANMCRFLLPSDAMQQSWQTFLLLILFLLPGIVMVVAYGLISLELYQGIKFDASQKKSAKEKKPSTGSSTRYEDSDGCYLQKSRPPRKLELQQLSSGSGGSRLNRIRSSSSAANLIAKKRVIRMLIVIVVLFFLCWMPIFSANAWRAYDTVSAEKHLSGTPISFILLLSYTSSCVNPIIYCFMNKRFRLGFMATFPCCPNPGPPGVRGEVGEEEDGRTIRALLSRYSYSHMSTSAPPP
Description: Pancreatae were removed from either rats or rabbits immediately after euthanasia and placed in ice-cold buffer (50 mM Tris·HCl (pH 7.4), 5 mM MgCl2, 5 mM DTT, 2 mg/ml BSA and 0.14 mg/ml bacitracin). The tissue (0.5 g pancreas) was homogenized in 200 ml of the ice-cold Tris buffer. Aliquots (0.1 ml) were added to various concentrations of radioligand (5 ml) in Tris buffer, incubated for 60 min at ambient temperatures, and filtered over GC-filters. After washing with ice cold Tris buffer (2×5 ml), the filters were air dried and counted in 10 ml of liquid scintillation cocktail (PCS, Amersham) in a Beckman LSC-5000. Data were converted to Molar concentrations and analyzed via SCAFIT, and data are presented by the method of Scatchard. The specific activity of the radioiodinated product was determined as that which provided the same concentration of receptor as obtained with the tritiated ligand.

[7] = In vivo distribution necropsy after i.v. injection; parameters: species or system rats
Description: as §1

[8] = In vivo distribution after coinjection of unlabeled carboxamide (receptor-mediated binding); parameters: species or system rats; details: rat, iv
Description: as §2

[9] = test system: CCK-A receptors; parameters: species or system rats; details: rat, in vivo, iv
Description: Rats under ketamine/acepromazine anesthesia were positioned for either anterior or posterior dynamic (128×128×16) images. A large-field-of-view gamma camera with a low energy, all purpose collimator, peaked for ^123 I, was utilized. Thirty one-minute images were acquired immediately post intravenous administration of 0.2 mCi of [^123 I]3(S)-1,3-dihydro-3-(4-iodobenzoylamino)-1-methyl -5-phenyl-2H-1,4-benzodiazepin-2-one. To enable visualization of the liver alone, an unblocked rat was injected with 0.125 mCi of ^99m Tc-albumin colloid. A static one-minute image (128×128×16) was obtained then, without moving the animal, the dose of [^123 I]3(S)-1,3-dihydro-3-(4-iodobenzoylamino) -1-methyl-5-phenyl-2H-1,4-benzodiazepin-2-one was injected and imaging proceeded as described. Rabbits and African green monkeys under ketamine/ xylazine anesthesia were positioned for an anterior view and imaged as the rats were after an intravenous injection of 0.5 mCi of [^123 I] (S)-1,3-dihydro-3-(4-iodobenzoylamino) -1-methyl-5-phenyl-2H-1,4-benzodiazepin-2-one for rabbits, and 1.3 mCi for monkeys.
All blocked studies utilized a coinjection of 1 mg/kg of (R)-N-(2,3-dihydro-1-methyl-2-oxo-5-phenyl-1H-1, 4-benzodiazepin-3-yl)-1H-indole-2-carboxamide. […] Reduced data were expressed as count rates in regions of interest (ROI) as a function of time.

[10] = mice; cited from earlier work

Question: Which “localization in the pancreas” value [1] does the source give for `CN1C(=O)[C@@H](NC(=O)c2cc3ccccc3[nH]2)N=C(c2ccccc2)c2ccccc21` [N-(2,3 Dihydro-1-methyl-2-oxo-5-phenyl-1H-1,4-benzodiazepine-3-yl) -1H-indole-2-carboxamide] here?
Answer: 76 % dose/gram

Question: Which results are given for `CN1C(=O)C(NC(=O)c2cc3ccccc3[nH]2)N=C(c2ccccc2)c2ccccc21` (stereo in doubt) [[^3 H](R)-N-(2,3-dihydro-1-methyl-2-oxo-5-phenyl-1H-1,4-benzodiazepin-3-yl)-1H-indole-2-carboxamide]?
Answer: tissue uptake ([2]; 1 mg/kg): 0.25 %ID/g; tissue uptake ([2]; 10 uCi): 2.1 %ID/g; receptor-mediated part of localization in the pancreas [3]: 90%

Question: With `CN1C(=O)[C@H](NC(=O)c2cc3ccccc3[nH]2)N=C(c2ccccc2)c2ccccc21` [(R)-N-(2,3-dihydro-1-methyl-2-oxo-5-phenyl-1H-1,4-benzodiazepin-3-yl) -1H-indole-2-carboxamide, reference compound] as the compound, how does the “reduction of localization (of the [^123 I] radioligand in rat pancreas) by coinjection” value ([4]; coinjection 0.4 mg/kg, rat pancreas (Table 3)) read?
Answer: 60-70%

Question: For `C[75Se]CC[C@H](N)C(=O)O` [^75 Se-selenomethionine], which biological clearance ([5]; in vivo) is on record?
Answer: slow biological clearance

Question: And the “tracer localizing in the pancreas” value ([5]; in vivo)?
Answer: 5-7%

Question: And the “uptake in adjacent organs” value ([5]; primarily the liver)?
Answer: high uptake in adjacent organs, primarily the liver

Question: For `CN1C(=O)[C@@H](NC(=O)c2ccc([123I])cc2)N=C(c2ccccc2)c2ccccc21` [[^123 I]3(S)-1,3-Dihydro-3-(4-iodobenzoylamino)-1-methyl-5-phenyl-2 H-1,4-benzodiazepin-2-one], which “affinity for the CCK-A receptor relative to [^3 H](R)-N-(2,3 dihydro-1-methyl-2-oxo-5-phenyl-1H-1,4-benzodiazepin-3-yl)-1H-indole-2-carboxamide (fold lower)” value [6] is on record?
Answer: 3 -fold lower

Question: What about the tissue uptake at 0.5 h ([7]; rat, blood, iv, 10 uCi, blood, 30 min post-i.v. injection of 10 μCi, 95% confidence intervals (Table 4), read-out: % DOSE/GRAM, Blood) of the same compound?
Answer: 0.307 ± 0.051 %ID/g

Question: What about the tissue uptake at 0.5 h ([7]; rat, descending colon, iv, 10 uCi, descending colon, 30 min post-i.v. injection of 10 μCi, 95% confidence intervals (Table 4), read-out: % DOSE/GRAM, Descending Colon) of the same compound?
Answer: 0.418 ± 0.073 %ID/g

Question: And the tissue uptake at 0.5 h ([7]; rat, liver, iv, 10 uCi, liver, 30 min post-i.v. injection of 10 μCi, 95% confidence intervals (Table 4), read-out: % DOSE/GRAM, Liver)?
Answer: 1.96 ± 0.56 %ID/g

Question: And the tissue uptake at 0.5 h ([7]; rat, muscle, iv, 10 uCi, muscle, 30 min post-i.v. injection of 10 μCi, 95% confidence intervals (Table 4), read-out: % DOSE/GRAM, Muscle)?
Answer: 0.319 ± 0.086 %ID/g

Question: And the tissue uptake at 0.25 h ([7]; rat, pancreas, iv, 10 uCi, pancreas, 15 min, i.v. injection, error range 95% confidence intervals (Table 2), read-out: % DOSE/GRAM in rat pancreas)?
Answer: 2.07 ± 0.46 %ID/g

Question: What about the tissue uptake at 0.5 h ([7]; rat, pancreas, iv, 10 uCi, pancreas, 30 min, i.v. injection, error range 95% confidence intervals (Table 2), read-out: % DOSE/GRAM in rat pancreas) of the same compound?
Answer: 1.9 ± 0.71 %ID/g

Question: What about the tissue uptake at 0.5 h ([7]; rat, pancreas, iv, 10 uCi, pancreas, 30 min post-i.v. injection of 10 μCi, 95% confidence intervals (Table 4), read-out: % DOSE/GRAM, Pancreas) of the same compound?
Answer: 2.54 ± 0.93 %ID/g

Question: What about the tissue uptake at 1 h ([7]; rat, pancreas, iv, 10 uCi, pancreas, 60 min, i.v. injection, error range 95% confidence intervals (Table 2), read-out: % DOSE/GRAM in rat pancreas) of the same compound?
Answer: 1.14 ± 0.13 %ID/g

Question: And the tissue uptake at 0.5 h ([7]; rat, pyloric sphincter, iv, 10 uCi, P. Sphincter (pyloric), 30 min post-i.v. injection of 10 μCi, 95% confidence intervals (Table 4), read-out: % DOSE/GRAM, P. Sphincter)?
Answer: 1.25 ± 0.33 %ID/g

Question: And the tissue uptake at 0.5 h ([7]; rat, sigmoidal colon, iv, 10 uCi, sigmoidal colon, 30 min post-i.v. injection of 10 μCi, 95% confidence intervals (Table 4), read-out: % DOSE/GRAM, Sigmoidal Colon)?
Answer: 0.5 ± 0.13 %ID/g

Question: And the tissue uptake at 0.5 h ([7]; rat, transverse colon, iv, 10 uCi, transverse colon, 30 min post-i.v. injection of 10 μCi, 95% confidence intervals (Table 4), read-out: % DOSE/GRAM, Transverse Colon)?
Answer: 0.5 ± 0.18 %ID/g

Question: What about the “ratio of activity in the pancreas to that in the blood and liver” value ([7]; rats) of the same compound?
Answer: suggests sufficient localization to provide in vivo images of the pancreas

Question: And the tissue uptake at 0.5 h ([8]; blood, 0.4 mg/kg, blood, 30 min post-i.v. coinjection of 10 μCi with 0.4 mg/kg (R)-indole-2-carboxamide, 95% confidence intervals (Table 5), read-out: % DOSE/GRAM, Blood, coinjection)?
Answer: 0.236 ± 0.03 %ID/g

Question: And the tissue uptake at 0.5 h ([8]; P. Sphincter (pyloric), 30 min post-i.v. coinjection of 10 μCi with 0.4 mg/kg (R)-indole-2-carboxamide, 95% confidence intervals (Table 5), read-out: % DOSE/GRAM, P. Sphincter, coinjection)?
Answer: 0.705 ± 0.19 %ID/g

Question: And the tissue uptake at 0.5 h ([8]; descending colon, 30 min post-i.v. coinjection of 10 μCi with 0.4 mg/kg (R)-indole-2-carboxamide, 95% confidence intervals (Table 5), read-out: % DOSE/GRAM, Descending Colon, coinjection)?
Answer: 0.434 ± 0.12 %ID/g

Question: What about the tissue uptake at 0.5 h ([8]; sigmoidal colon, 30 min post-i.v. coinjection of 10 μCi with 0.4 mg/kg (R)-indole-2-carboxamide, 95% confidence intervals (Table 5), read-out: % DOSE/GRAM, Sigmoidal Colon, coinjection) of the same compound?
Answer: 0.6 ± 0.47 %ID/g

Question: And the tissue uptake at 0.5 h ([8]; transverse colon, 30 min post-i.v. coinjection of 10 μCi with 0.4 mg/kg (R)-indole-2-carboxamide, 95% confidence intervals (Table 5), read-out: % DOSE/GRAM, Transverse Colon, coinjection)?
Answer: 0.384 ± 0.06 %ID/g

Question: And the tissue uptake at 0.5 h ([8]; liver, 0.4 mg/kg, liver, 30 min post-i.v. coinjection of 10 μCi with 0.4 mg/kg (R)-indole-2-carboxamide, 95% confidence intervals (Table 5), read-out: % DOSE/GRAM, Liver, coinjection)?
Answer: 1.69 ± 0.39 %ID/g

Question: And the tissue uptake at 0.5 h ([8]; muscle, 0.4 mg/kg, muscle, 30 min post-i.v. coinjection of 10 μCi with 0.4 mg/kg (R)-indole-2-carboxamide, 95% confidence intervals (Table 5), read-out: % DOSE/GRAM, Muscle, coinjection)?
Answer: 0.271 ± 0.04 %ID/g

Question: What about the tissue uptake at 0.25 h ([8]; pancreas, 0.4 mg/kg, pancreas, 15 min, i.v. coinjection with 0.4 mg/kg (R)-indole-2-carboxamide, 95% confidence intervals (Table 3), read-out: % DOSE/GRAM in rat pancreas, coinjection) of the same compound?
Answer: 0.574 ± 0.065 %ID/g

Question: What about the tissue uptake at 0.5 h ([8]; pancreas, 0.4 mg/kg, pancreas, 30 min, i.v. coinjection with 0.4 mg/kg (R)-indole-2-carboxamide, 95% confidence intervals (Table 3), read-out: % DOSE/GRAM in rat pancreas, coinjection) of the same compound?
Answer: 0.727 ± 0.18 %ID/g

Question: What about the tissue uptake at 0.5 h ([8]; pancreas, 0.4 mg/kg, pancreas, 30 min post-i.v. coinjection of 10 μCi with 0.4 mg/kg (R)-indole-2-carboxamide, 95% confidence intervals (Table 5), read-out: % DOSE/GRAM, Pancreas, coinjection) of the same compound?
Answer: 0.9 ± 0.22 %ID/g

Question: What about the tissue uptake at 1 h ([8]; pancreas, 0.4 mg/kg, pancreas, 60 min, i.v. coinjection with 0.4 mg/kg (R)-indole-2-carboxamide, 95% confidence intervals (Table 3), read-out: % DOSE/GRAM in rat pancreas, coinjection) of the same compound?
Answer: 0.472 ± 0.085 %ID/g

Question: What about the “specific localization in the region of the pyloric sphincter” value ([4]; rats) of the same compound?
Answer: specific localization is obtained in the region of the pyloric sphincter

Question: What about the “blockade of localization in the duodenum and colon” value ([4]; rats, duodenum and colon) of the same compound?
Answer: significant blockade of localization was not demonstrated

Question: What about the “localization in the pancreas (imaging and biopsied samples)” value [9] of the same compound?
Answer: did localize in the pancreas by a receptor-mediated mechanism

Question: With `Cc1cc([131I])cc(CN(C)CCCN(C)C)c1O` [[^131 I]HIPDM, [^131 I]N, N, N'-trimethyl-N'-(2-hydroxy-3-methyl-5-iodobenzyl)-1,3-propanediamine] as the compound, how does the “localization in the pancreas” value [10] read?
Answer: localizes in the pancreas
